The results in this text go back to patent US10525105B2, “Peptide for repairing cartilage and treating osteoarthritis” (Guangzhou Link Health Pharma Co., Ltd., priority 2016, dated 2020).

Data set [1] can be described thus: in vivo. On the set-up: species or system New Zealand rabbits. The following applies: New Zealand, rabbit, iv, 0.5 mg/kg.
Procedure: LC/MSMS methodology was established, Finnigan TSQ Discovery Max LC/MS was equipped with Surveyor HPLC system. The detection limit was 1-1000 ng/ml, and the recovery rate was over 80%. Six New Zealand rabbits were randomly divided into two groups (three rabbits in each group). […] The blood concentration was measured by LC/MSMS method, 100 μl of blood plasma was taken, 500 μl of a mixed solvent containing IS 2000 ng/ml of acetonitrile and methanol solution at a ratio of 70:30 was added, shaken, and centrifuged at 12000 rpm for 10 minutes. 20 μl of supernatant was injected for LC/MSMS analysis. The main pharmacokinetic parameters were calculated by using 3P97 pharmacokinetic software.
Data set [2] concerns knee articular cartilage defect. The data set is described as follows: Rabbit cartilage repair model. In kind it is in vivo, New Zealand rabbits. Particulars: for general observation score: 90 days after first administration, 0-4 point scale; for histopathological scores of articular cartilage: 90 days, ICRS pathological scoring, grade 0-6, six rabbits. As for the experimental part: Animals: New Zealand rabbits, 2 months old, half male and half female
Construction of models: New Zealand rabbits were anesthetized with 6% pentobarbital sodium (0.7 mL/kg) via marginal ear veins. After anesthesia, a longitudinal incision having a length of about 3 cm was made on the medial side of the knee joint of the left hind leg; the skin, subcutaneous tissue and joint capsule were cut successively to maintain the integrity of the patellar ligament; and the patella was turned outward to expose the femoral condyle. When the knee joint flexes 90°, an articular cartilage defect with a diameter of 4.2 mm and a depth of 3 mm was drilled in the femur and the middle of lateral intercondylar articular surfaces corresponding to the patella by using a drill bit with a diameter of 4.2 mm (according to visible bleeding on subchondral bone). The defect was washed with normal saline without any other treatment. […] After the patella is reset, the muscle and skin incisions are sequentially sutured. After the operation, immediately, the animals were intramuscularly injected with penicillin sodium once a day for 3 consecutive days to prevent infection.
Administration: the New Zealand rabbits with knee articular cartilage defects were divided into four groups: negative control group, low-dose group (1 mg/rabbit), medium-dose group (3 mg/rabbit) and high-dose group (10 mg/rabbit), 12 rabbits in each group, half male and half female in each group. On the 6th day after constructing the models, each group of rabbits was administered intra-articularly. Namely, 1 mg/rabbit, 3 mg/rabbit and 10 mg/rabbit were administered to the test rabbits, respectively, and the administration volume was 0.2 ml.
Sacrifice and observation: at 90 days after the first administration, 6 rabbits (half male and half female) were selected from each group and sacrificed, and the repair situation of the knee articular cartilage in each rabbit was observed by dissection.
(1) General observation: during necropsy, the articular cavity was opened, the patella articular surface was exposed, and the repair of the filling edge of the defect, the flatness of the cartilage surface, the color of the new cartilage, etc., were observed.
Subsequently, scoring was performed according to the following criteria:
0 point: the articular surface is smooth and the color is normal;
1 point: the articular surface is rough, with small fissures and dark color;
2 points: the cartilage defect has reached the middle layer of cartilage;
3 points: the articular surface ulcer is formed, and the cartilage defect has reached the deep layer of cartilage; and
4 points: the cartilage is exfoliated, and subchondral bones are exposed.
(2) Histological pathological observation: observation was performed under light microscope, and scoring was performed according to the ICRS pathological scoring standard:
Grade 0: the cartilage surface is flat and the cartilage is intact;
Grade 1: the superficial fibers are formed in the cartilage surface and are uneven;
Grade 2: the cartilage surface is discontinuous, accompanied by cell proliferation; and metachromatic materials are increased or decreased in the II-III layers;
Grade 3: cartilage rhagadia has reached the III layer or erosion occurs;
Grade 4: the erosion of the cartilage is aggravated, and the articular cartilage is damaged;
Grade 5: the articular cartilage is exfoliated; and
Grade 6: the joint is deformed.
After the rabbits were sacrificed by anesthesia and exsanguination, the articular cartilage tissue was exfoliated and fixed with 10% neutral formalin, followed by dehydration, conventional paraffin embedding, sectioning, HE staining and mounting, and detection was performed by light microscopy.

Data set [3] concerns mesenchymal stem cells. The data set is described as follows: Immunohistochemical detection of COL2A1 in mesenchymal stem cells. In kind it is cell-based, rat. Particulars: 1 μM. Here is the method:
(§1) The cells were re-suspended in a complete chondrogenic medium (purchased from Guangzhou Cyagen Biosicences Inc., Item No.: RASMX-90011) containing different concentrations of BM23 peptides (0.1 μM, 0.3 μM, and 1 μM), so that the concentration of BMSCs was 5.0×10^5 cells per ml. PBS was used as a negative control, and 1 μM human insulin growth factor (IGF-1, purchased from Beijing Yiqiao Shenzhou Biotechnology Co., Ltd.) was used as a positive control.
The treated BMSCs were incubated at 37° C. under 5% CO2 saturated humidity. The medium was changed every 2-3 days, and 0.5 mL of fresh complete chondrogenic medium was added to each tube.
Generally, samples can be collected after 28 days of continuous induction; and cartilage balls can be subjected to formalin fixation, paraffin embedding, sectioning and alcian blue staining.
Paraffin Embedding of Tissues:
The specimens were fixed with 4% paraformaldehyde for 24-36 hours.
The specimens were taken out and washed to remove the fixative, and a material with a suitable size (about 0.2 cm in thickness) was cut for embedding.
The specimens were respectively treated once with 70%, 80%, 90% and 95% ethanol, and 60 minutes are for each treatment. The specimens were treated twice with 100% ethanol, and 50 minutes are for each time.
The specimens were treated once with ½xylene-½ absolute ethanol for 15 minutes. […]

Data set [4] deals with rat bone marrow mesenchymal stem cells (BMSCs). The data set is described as follows: Chondrogenic induction of BMSCs, quantitative PCR of COL2A1 and ACAN mRNA. In kind it is cell-based. The following applies: rat BMSCs in chondrogenic medium. As for the experimental part: Three SD rats aged 8 weeks were sacrificed by a dislocation method and disinfected with 70% ethanol for 5 minutes. The abdominal wall layers of the three SD rats were then cut with scissors, an incision of each SD rat was pulled to a femur, and muscles on the femur were carefully separated.
A middle of the femur was cut off, and a bone marrow cavity was repeatedly washed by a low-sugar DMEM medium (containing 1 mL/L of heparin) sucked with a syringe to flush out bone marrow.
The bone marrow was repeatedly washed with the syringe, and prepared into a single cell suspension by successively passing through needle No. 7 and needle No. 4.
The single cell suspension was centrifuged (1500 r/min, 10 min), and a supernatant was discarded; DMEM-F12 complete medium containing 10% FBS was added, and then an inoculation was performed in a culture flask at a density of 10^7 cells/mL, and the culture flask was placed in an incubator having 5% CO2 at 37° C. for a culture.
The cells were purified by a differential adherent culture. The culture solution was changed 48 hours after the inoculation, and thereafter, the culture solution was changed every 3 days to remove non-adherent hematopoietic cells.
After the cells grew to 80%-90%, a passage was performed. The culture solution was removed, and the cells were washed with PBS to remove residual serum; and the PBS was removed.
A BMSCs digestive juice (containing 0.25% trypsin and 0.02% EDTA solution) was added for a slight shaking until the BMSCs digestive juice just covers the bottom of the culture flask; and a digestion time was about 5 minutes. Then, the passage was carried out.
The cells were transferred to a centrifuge tube, centrifuged at 1500 r/min for 10 minutes; a supernatant was removed; and a complete culture medium of mesenchymal stem cells was added for re-suspending the cells.
The BM23 peptide was dissolved in phosphate buffered saline (PBS).
as §1
The treated BMSCs were incubated at 37° C. under 5% CO2 saturated humidity. The medium was changed every 2-3 days, and 0.5 mL of fresh complete chondrogenic medium was added to each tube. […]
Quantitative PCR Detection […]
Quantitative PCR was performed using cDNA as a template and the following primers: • (1) rat COL2A1-F1: 5′ […] […]

The test system of data set [5] is chondrocytes. As to the kind of experiment: Immunohistochemical detection of COL2A1 in chondrocytes. The class given is cell-based, New Zealand white rabbit. Particulars: 1 μM, 5 days. As for the experimental part:
The articular cartilage of New Zealand white rabbit aged 2 months old was cut under sterile conditions, and cut into a size of 1 mm. The articular cartilage was digested at 37° C. according to the following procedure: (1) digested with 2 mg/ml hyaluronidase for 45 minutes; (2) digested with 2 mg/ml trypsin for 45 minutes; and (3) digested with 4 mg/ml type II collagenase for 3 hours, washed, and then centrifuged (1500 r/min) for 5 minutes; and the precipitate was cultured in a DMEM medium containing 15% fetal bovine serum. Immunohistochemical Detection of COL2A1 Chondrocytes were inoculated at 3.5×10^5 cells/ml in a 6-well culture plate with coverslips, and different concentrations of BM23 peptides were added; PBS was set as a negative control group, and IGF-1 was set as a positive control group. The 6-well culture plate was placed in a 5% CO2 saturated water-vapor carbon dioxide incubator for a culture at 37° C. for 5 days. Immunohistochemical staining was performed as in Embodiment 3.

For data set [6], the system named is chondrocytes. The data set is described as follows: Proliferation of chondrocytes by MTS assay. In kind it is cell-based, New Zealand white rabbit. Particulars: 5 days of treatment, OD 570 nm, BM23 peptide 0.1, 0.3, 1 μM, IGF-1 1 μM. Here is the method: The articular cartilage of New Zealand white rabbit aged 2 months old was cut under sterile conditions, and cut into a size of 1 mm. The articular cartilage was digested at 37° C. according to the following procedure: (1) digested with 2 mg/ml hyaluronidase for 45 minutes; (2) digested with 2 mg/ml trypsin for 45 minutes; and (3) digested with 4 mg/ml type II collagenase for 3 hours, washed, and then centrifuged (1500 r/min) for 5 minutes; and the precipitate was cultured in a DMEM medium containing 15% fetal bovine serum. […] Detection of the Proliferation of Chondrocytes by MTS Assay Chondrocytes were inoculated in a 96-well plate at 2×10^4 cells/well, and different concentrations of BM23 peptides (0.1 μM, 0.3 μM, and 1 μM) were added; PBS was set as a negative control group, and IGF-1 (1 μM) was set as a positive control group. The 96-well plate was placed in a 5% CO2 saturated water-vapor carbon dioxide incubator for a culture at 37° C. for 5 days. 20 μl of MTS mixture was added to each well, and the culture was continued for 3-4 hours for coloration. Before testing, the culture plate was shaken for 10 seconds to uniformly mix colors. The optical density (OD) of each well was measured at a wavelength of 570 nm on an enzyme-linked immunometric meter.
For orientation: Formazan colour is commonly taken as a measure of viable cells.

[7] abbreviates: high-dose group 10 mg/rabbit intra-articular.
[8] abbreviates: low-dose group 1 mg/rabbit intra-articular.
[9] abbreviates: medium-dose group 3 mg/rabbit intra-articular.

Peptide text beside a SMILES is read from it.

The half-life is the time needed for the level to fall by half in the phase considered. Read a low half-life as fast loss. Regarding `CC[C@H](C)[C@H](NC(=O)[C@H](CCCNC(=N)N)NC(=O)[C@H](Cc1c[nH]cn1)NC(=O)[C@H](CCCCNC(=N)N)NC(=O)[C@H](CC(N)=O)NC(=O)[C@H](CCCNC(=N)N)NC(=O)[C@H](Cc1c[nH]cn1)NC(=O)[C@H](CCCCN)NC(=O)[C@H](CC(C)C)NC(=O)[C@H](N)CCC(N)=O)C(=O)N[C@@H](CCCCN)C(=O)N[C@H](C(=O)NCC(=O)N[C@@H](CO)C(=O)N[C@H](C(=O)N[C@@H](CC(N)=O)C(=O)N[C@@H](Cc1c[nH]cn1)C(=O)NCC(=O)N[C@@H](CC(C)C)C(=O)N[C@H](C(=O)N[C@@H](CCC(N)=O)C(=O)N[C@@H](CO)C(=O)N[C@@H](CC(C)C)C(N)=O)C(C)C)[C@@H](C)O)[C@@H](C)O` [BM23 peptide] (HELM PEPTIDE1{[dQ].L.K.H.R.N.[N=C(N)NCCCC[C@H](N[*:1])C(=O)[*:2]].H.R.I.K.T.G.S.T.N.H.G.L.V.Q.S.L.[am]}$$$$V2.0; N-terminus assumed), the half-life in data set [1] was 2.05 ± 0.633 h. The general observation score in data set [2] (setting [7]) turned out to be 2.1 points; in data set [2] (setting [8]), 3.7 points; in data set [2] (setting [9]), 3.0 points. Besides, the “histopathological scores of articular cartilage” value in data set [2] (setting [7]) worked out at 2.1 points; in data set [2] (setting [8]) it was 3.7 points; in data set [2] (setting [9]), 3.0 points. In addition, the “expression level of COL2A1 protein (immunohistochemical staining) vs PBS treatment group” value in data set [3] and in data set [5] was “significantly increased” in each case. Besides, the “mRNA expression level of ACAN compared with PBS treatment” value in data set [4] (0.1 μM) is given as “no significant effect”; in data set [4] (0.3 μM), “significantly different”; in data set [4] (1 μM) it was “significantly different”. Besides, the “mRNA expression level of COL2A1 compared with PBS treatment” value in data set [4] (0.1 μM) was “no significant effect”. The “proliferation of chondrocytes compared with the PBS group” value in data set [6] is listed as “significantly promoted”.

Turning to “positive control: human insulin growth factor (IGF-1), used at 1 μM as positive control”, the “proliferation of chondrocytes compared with the PBS group” value in data set [6] is recorded as “significantly promoted”.
